Results as given in patent publication EP0750618B1, “OXAZOLIDINONE DERIVATIVES AND PHARMACEUTICAL COMPOSITIONS CONTAINING THEM” (priority 1994, dated 1995).
Converted amounts (≈) assume the structure as drawn.

How the values were obtained:
Test in all cases: MIC test, standard agar dilution method
[1] = system: Staphylococcus epidermidis (UC 12084); type: cell-based; details: UC12084, incubated overnight at 35°C, read-out: Minimum Inhibitory Concentrations (MIC) S. enidermidis
[2] = system: Staphylococcus aureus; details: UC9213, read-out: Minimum Inhibitory Concentrations (MIC) S. aureus
[3] = system: Streptococcus pyogenes (UC 152); details: UC152, read-out: Minimum Inhibitory Concentrations (MIC) S. pyogenes

SMILES	MIC [1]	MIC [2]	MIC [3]
CC(=O)NC[C@H]1CN(c2ccc(N3CCC(=NN4CCN(CCO)CC4)CC3)c(F)c2)C(=O)O1 [compound 49, (S)-N-[3-(3-fluoro-4-{4-[4-(2-hydroxy-ethyl)-piperazin-1-ylimino]-piperidin-1-yl)-phenyl)-2-oxo-oxazolidin-5-ylmethyl]-acetamide]	0.5 µg/mL (≈ 1.05 µM)	4 µg/mL (≈ 8.39 µM)	1 µg/mL (≈ 2.1 µM)
CC(=O)CC1CCN(c2ccc(N3C[C@H](CNC(C)=O)OC3=O)cc2F)CC1 [compound 33, (S)-N-(3-{3-fluoro-4-[4-(2-oxo-propyl)-piperidin-1-yl]-phenyl}-2-oxo-oxazolidin-5-ylmethyl)-acetamide]	2 µg/mL (≈ 5.11 µM)	8 µg/mL (≈ 20.4 µM)	2 µg/mL (≈ 5.11 µM)
COC(=O)CON=C1CCN(c2ccc(N3C[C@H](CNC(C)=O)OC3=O)cc2F)CC1 [compound 47, (S)-(1-{4-[5-(acetylamino-methyl)-2-oxo-oxazolidin-3-yl]-2-fluoro-phenyl}-piperidin-4-ylideneaminooxy)-acetic acid methyl ester]	1 µg/mL (≈ 2.29 µM)	8 µg/mL (≈ 18.3 µM)	2 µg/mL (≈ 4.58 µM)
COCOC1CCN(c2ccc(N3C[C@H](CNC(C)=O)OC3=O)cc2F)CC1 [compound 27, (S)-N-{3-[3-fluoro-4-(4-methoxymethoxy-piperidin-1-yl)-phenyl]-2-oxo-oxazolidin-5-ylmethyl}-acetamide]	2 µg/mL (≈ 5.06 µM)	8 µg/mL (≈ 20.2 µM)	8 µg/mL (≈ 20.2 µM)
CC(=O)NC[C@H]1CN(c2ccc(N3CCC(C4(C)OCCO4)CC3)c(F)c2)C(=O)O1 [Compound No. 35, (S)-N-(3-{3-fluoro-4-[4-(2-methyl-[1,3]dioxolan-2-yl)-piperidin-1-yl]-phenyl}-2-oxo-oxazolidin-5-ylmethyl)-acetamide]	2 µg/mL (≈ 4.75 µM)	8 µg/mL (≈ 19 µM)	2 µg/mL (≈ 4.75 µM)
CONC1CCN(c2ccc(N3C[C@H](CNC(C)=O)OC3=O)cc2F)CC1 [Compound No. 59, (S)-N-{3-[3-fluoro-4-(4-methoxyamino-piperidin-1-yl)-phenyl]-2-oxo-oxazolidin-5-ylmethyl}-acetamide]	2 µg/mL (≈ 5.26 µM)	4 µg/mL (≈ 10.5 µM)	4 µg/mL (≈ 10.5 µM)
CC(=O)NC[C@H]1CN(c2ccc(N3CCC(C(C)=O)CC3)c(F)c2)C(=O)O1 [compound 36, (S)-N-{3-[4-(4-acetyl-piperidin-1-yl)-3-fluoro-phenyl]-2-oxo-oxazolidin-5-ylmethyl}-acetamide]	1 µg/mL (≈ 2.65 µM)	4 µg/mL (≈ 10.6 µM)	2 µg/mL (≈ 5.3 µM)
CC(=O)NC[C@H]1CN(c2ccc(N3CCC(C4(CO)OCCO4)CC3)c(F)c2)C(=O)O1 [Compound No. 44, (S)-N-(3-{3-fluoro-4-[4-(2-hydroxymethyl-[1,3]dioxolan-2-yl)-piperidin-1-yl]-phenyl}-2-oxo-oxazolidin-5-ylmethyl)-acetamide]	2 µg/mL (≈ 4.57 µM)	16 µg/mL (≈ 36.6 µM)	24 µg/mL (≈ 54.9 µM)
CC(=O)NC[C@H]1CN(c2ccc(N3CCC(=NN)CC3)c(F)c2)C(=O)O1 [compound 46, (S)-N-{3-[3-fluoro-4-(4-hydrazono-piperidin-1-yl)-phenyl]-2-oxo-oxazolidin-5-ylmethyl}-acetamide]	0.5 µg/mL (≈ 1.38 µM)	2 µg/mL (≈ 5.5 µM)	2 µg/mL (≈ 5.5 µM)
CC(=O)NC[C@H]1CN(c2ccc(N3CCC(=NOCC(O)CO)CC3)c(F)c2)C(=O)O1 (stereo partly drawn) [Compound No. 62, (S)-N-(3-{4-[4-(2,3-dihydroxy-propoxyimino)-piperidin-1-yl]-3-fluorophenyl}-2-oxo-oxazolidin-5-ylmethyl)-acetamide]	1 µg/mL (≈ 2.28 µM)	8 µg/mL (≈ 18.2 µM)	2 µg/mL (≈ 4.56 µM)
CC(=O)NC[C@H]1CN(c2ccc(N3CCC(=NNC(=N)N)CC3)c(F)c2)C(=O)O1 [compound 42, (S)-N-{3-[3-fluoro-4-(4-amidinohydrazono-piperidin-1-yl)-phenyl]-2-oxo-oxazolidin-5-ylmethyl}-acetamide]	2 µg/mL (≈ 4.93 µM)	8 µg/mL (≈ 19.7 µM)	0.5 µg/mL (≈ 1.23 µM)
CC(=O)NC[C@H]1CN(c2ccc(N3CCC(NC(=O)CO)CC3)c(F)c2)C(=O)O1 [compound 10, (S)-N-(1-{4-[5-(acetylamino-methyl)-2-oxo-oxazolidin-3-yl]-2-fluoro-phenyl}-piperidin-4-yl)-2-hydroxy-acetamide]	2 µg/mL (≈ 4.9 µM)	16 µg/mL (≈ 39.2 µM)	2 µg/mL (≈ 4.9 µM)
CC(=O)NC[C@H]1CN(c2ccc(N3CCC(=Nn4cnnc4)CC3)c(F)c2)C(=O)O1 [compound 51, (S)-N-(3-{3-fluoro-4-[4-([1,2,4]triazol-4-ylimino)-piperidin-1-yl]-phenyl}-2-oxo-oxazolidin-5-ylmethyl)-acetamide]	1 µg/mL (≈ 2.41 µM)	4 µg/mL (≈ 9.63 µM)	2 µg/mL (≈ 4.81 µM)
CN[C@H](CC(C)C)C(=O)N[C@H]1C(=O)N[C@@H](CC(N)=O)C(=O)N[C@H]2C(=O)N[C@H]3C(=O)N[C@H](C(=O)N[C@H](C(=O)O)c4cc(O)cc(O)c4-c4cc3ccc4O)[C@H](O)c3ccc(c(Cl)c3)Oc3cc2cc(c3O[C@@H]2O[C@H](CO)[C@@H](O)[C@H](O)[C@H]2O[C@H]2C[C@](C)(N)[C@H](O)[C@H](C)O2)Oc2ccc(cc2Cl)[C@H]1O [Vancomycin, reference compound]	2 µg/mL (≈ 1.38 µM)	1 µg/mL (≈ 0.69 µM)	0.5 µg/mL (≈ 0.345 µM)
CC(=O)NC[C@H]1CN(c2ccc(N3CCC(NC(C)=O)CC3)c(F)c2)C(=O)O1 [compound 9, (S)-N-{3-[4-(4-acetylamino-piperidin-1-yl)-3-fluoro-phenyl]-2-oxo-oxazolidin-5-ylmethyl}-acetamide]	2 µg/mL (≈ 5.1 µM)	16 µg/mL (≈ 40.8 µM)	4 µg/mL (≈ 10.2 µM)
CC(=O)NC[C@H]1CN(c2ccc(N3CCC(CC4(C)OCCO4)CC3)c(F)c2)C(=O)O1 [Compound No. 32, (S)-N-(3-{3-fluoro-4-[4-(2-methyl-[1,3]dioxolan-2-ylmethyl)-piperidin-1-yl]-phenyl}-2-oxo-oxazolidin-5-ylmethyl)-acetamide]	4 µg/mL (≈ 9.18 µM)	16 µg/mL (≈ 36.7 µM)	4 µg/mL (≈ 9.18 µM)
CC(=O)NC[C@H]1CN(c2ccc(N3CCC(=O)C(CO)C3)c(F)c2)C(=O)O1 (stereo partly drawn) [Compound No. 37, (S)-N-{3-[3-fluoro-4-(3-hydroxymethyl-4-oxo-piperidin-1-yl)-phenyl]-2-oxo-oxazolidin-5-ylmethyl}-acetamide]	2 µg/mL (≈ 5.27 µM)	8 µg/mL (≈ 21.1 µM)	2 µg/mL (≈ 5.27 µM)
CON=C1CCN(c2ccc(N3C[C@H](CNC(C)=O)OC3=O)cc2F)CC1 [Compound No. 29, (S)-N-{3-[3-fluoro-4-(4-methoxyimino-piperidin-1-yl)-phenyl]-2-oxo-oxazolidin-5-ylmethyl}-acetamide]	1 µg/mL (≈ 2.64 µM)	4 µg/mL (≈ 10.6 µM)	4 µg/mL (≈ 10.6 µM)
COCOCC1COC2(CCN(c3ccc(N4C[C@H](CNC(C)=O)OC4=O)cc3F)CC2)O1 (stereo partly drawn) [compound 57, (S)-N-(3-{3-fluoro-4-[2-(methoxymethoxy-methyl)-1,4-dioxa-8-aza-spiro[4.5]dec-8-yl]-phenyl}-2-oxo-oxazolidin-5-ylmethyl)-acetamide]	4 µg/mL (≈ 8.56 µM)	16 µg/mL (≈ 34.2 µM)	8 µg/mL (≈ 17.1 µM)
CC(=O)NC[C@H]1CN(c2ccc(N3CCC(NC(=O)OCOC(C)=O)CC3)c(F)c2)C(=O)O1 [compound 65, (S)-N-(3-{4-[4-(acetoxy-methoxy-carbonylamino)-piperidin-1-yl]-3-fluorophenyl}-2-oxo-oxazolidin-5-ylmethyl)-acetamide]	1 µg/mL (≈ 2.14 µM)	8 µg/mL (≈ 17.2 µM)	0.5 µg/mL (≈ 1.07 µM)
COCON=C1CCN(c2ccc(N3C[C@H](CNC(C)=O)OC3=O)cc2F)CC1 [compound 60, (S)-N-{3-[3-fluoro-4-(4-methoxymethoxyimino-piperidin-1-yl)-phenyl]-2-oxo-oxazolidin-5-ylmethyl}-acetamide]	2 µg/mL (≈ 4.9 µM)	8 µg/mL (≈ 19.6 µM)	2 µg/mL (≈ 4.9 µM)
CC(=O)NC[C@H]1CN(c2ccc(N3CCC(=NN4CCOCC4)CC3)c(F)c2)C(=O)O1 [compound 40, (S)-N-(3-{3-fluoro-4-[4-(morpholin-4-ylimino)-piperidin-1-yl]-phenyl}-2-oxo-oxazolidin-5-ylmethyl)-acetamide]	0.5 µg/mL (≈ 1.15 µM)	4 µg/mL (≈ 9.23 µM)	2 µg/mL (≈ 4.61 µM)
CCOC(=O)CC(=O)NN=C1CCN(c2ccc(N3C[C@H](CNC(C)=O)OC3=O)cc2F)CC1 [compound 56, (S)-(1-{4-[5-(acetylamino-methyl)-2-oxo-oxazolidin-3-yl]-2-fluorophenyl}-piperidin-4-ylidenehydrazinocarbonyl)-acetic acid ethyl ester]	1 µg/mL (≈ 2.09 µM)	4 µg/mL (≈ 8.38 µM)	2 µg/mL (≈ 4.19 µM)
CC(=O)NC[C@H]1CN(c2ccc(N3CCC(Nc4nccs4)CC3)c(F)c2)C(=O)O1 [Compound No. 63, (S)-N-(3-{3-fluoro-4-[4-(thiazol-2-ylamino)-piperidin-1-yl]-phenyl}-2-oxo-oxazolidin-5-ylmethyl)-acetamide]	2 µg/mL (≈ 4.61 µM)	16 µg/mL (≈ 36.9 µM)	2 µg/mL (≈ 4.61 µM)
CC(=O)NC[C@H]1CN(c2ccc(N3CCC4(CC3)OCCO4)c(F)c2)C(=O)O1 [compound 28, (S)-N-{3-[4-(1,4-dioxa-8-aza-sprio[4.5]dec-8-yl)-3-fluoro-phenyl]-2-oxo-oxazolidin-5-ylmethyl}-acetamide]	2 µg/mL (≈ 5.08 µM)	8 µg/mL (≈ 20.3 µM)	4 µg/mL (≈ 10.2 µM)
C=CCON=C1CCN(c2ccc(N3C[C@H](CNC(C)=O)OC3=O)cc2F)CC1 [Compound No. 58, (S)-N-{3-[4-(4-allyloxyimino-piperidin-1-yl)-3-fluoro-phenyl]-2-oxo-oxazolidin-5-ylmethyl}-acetamide]	1 µg/mL (≈ 2.47 µM)	8 µg/mL (≈ 19.8 µM)	2 µg/mL (≈ 4.95 µM)
CC(=O)NC[C@H]1CN(c2ccc(N3CCC(=NOCCO)CC3)c(F)c2)C(=O)O1 [compound 48, (S)-N-(3-{3-fluoro-4-[4-(2-hydroxy-ethoxyimino)-piperidin-1-yl]-phenyl}-2-oxo-oxazolidin-5-ylmethyl)-acetamide]	1 µg/mL (≈ 2.45 µM)	8 µg/mL (≈ 19.6 µM)	2 µg/mL (≈ 4.9 µM)
CC(=O)NC[C@H]1CN(c2ccc(N3CCC4(CC3)OCC(CO)O4)c(F)c2)C(=O)O1 (stereo partly drawn) [Compound No. 52, (S)-N-{3-[3-fluoro-4-(2-hydroxymethyl-1,4-dioxa-8-aza-spiro[4.5]dec-8-yl)-phenyl]-2-oxo-oxazolidin-5-ylmethyl}-acetamide]	2 µg/mL (≈ 4.72 µM)	16 µg/mL (≈ 37.8 µM)	4 µg/mL (≈ 9.45 µM)
